Assay results from patent EP0484785B1, “Use of xanthines for the preparation of a medicament effective for inhibiting the replication of human retroviruses” (HOECHST-ROUSSEL PHARMACEUTICALS INCORPORATED, priority 1990, dated 1992).
Like-named read-outs stand apart in the source and are kept apart here.

What was measured:
HIV-1 [1] = assay: HIV-1 replication in acutely infected Jurkat cells, reverse transcriptase activity in cell-free supernatants; assay type: cell-based; details: for Reverse Transcriptase (% control): Jurkat cells, 4 h pretreatment, 7 days
Method: (§1) Human Jurkat cells (a CD4⁺ T-cell lymphoma line) were grown in RPMI-1640 supplemented with 10% fetal calf serum, penicillin, streptomycin and L-glutamine. HIV-1 was produced in Jurkat cells. During the log phase of growth, cell-free supernatant was harvested, tested for RT activity (according to the method of Dayton et al., Cell 1986, 44:941-947) and frozen in aliquots at -70°C until use. Jurkat cells were pretreated with pentoxifylline at various concentrations for 4 hours after which HIV-1 (10⁴ cpm units of RT activity) was added to the cultures. The cells remained in the appropriate concentration of pentoxifylline for a total of 7 days, at which point the RT activity was measured in cell-free supernatants. In parallel, cell viability was tested by trypan blue staining of uninfected Jurkat cells treated for 7 days with various concentrations of pentoxifylline. The results are expressed as a percent of control.

HIV-1 LTR = assay: HIV-1 LTR-mediated gene expression, CAT activity in U38 cells; assay type: cell-based, human; design: CAT activity: unit not given here; details: for CAT activity: 2 days
Method: Down-regulation of gene expression mediated by the HIV-1 LTR: U38 cells (Felber BK, Pavlakis GN. Science 1988, 239:184-187) were cultured in the presence or absence of 10 ng/ml phorbol-12-myristate-13-acetate (PMA). U38 cells were derived from the monocytoid human cell line U937 and contain integrated copies of the HIV-1 LTR ligated to the chloramphenicol acetyl transferase (CAT) gene. These cells have been kindly provided by Dr. Barbara Felber (National Cancer Institute, Frederick, Maryland, USA). Two hours later, the cells were washed once in phosphate-buffered saline (PBS) and cultured in the presence of various concentrations of pentoxifylline. After 2 days, cell viability was tested by trypan blue staining, and the activity of CAT was measured as described previously (Sodroski, J. et al., Science 1985, 227:171-173) after standardizing the cell extracts for protein content.

Jurkat cells = assay type: cell-based; details: human, 7 days
Method: as §1

HIV-1 [2] = assay: HIV-1 replication in acutely infected peripheral blood mononuclear cells, reverse transcriptase activity in cell-free supernatants; assay type: cell-based; details: for Reverse Transcriptase (% control): PBM, 4 h pretreatment, 7 days
Method: (§2) Human peripheral blood mononuclear cells (PBM) were obtained by Ficoll-Hypaque gradient centrifugation of blood donated by normal HIV-1 sero-negative individuals. PBM were cultured in RPMI-1640 supplemented with 20% fetal calf serum, penicillin, streptomycin and L-glutamine. After stimulating cells overnight with 15 µg/ml of concanavalin A, they were maintained in 10 units/ml interleukin-2 (IL-2) for the duration of the assay. To test for the inhibition of HIV-1 replication in PBM by pentoxifylline, PBM were pretreated with various concentrations of pentoxifylline for 4 hours after which HIV-1 (10⁴ cpm units of RT activity) was added to the cultures. The cells remained in the appropriate concentrations of the drug for a total of 7 days at which point the RT activity was measured in cell-free supernatants. In parallel, the cytotoxicity was analyzed by trypan blue staining of uninfected PBM treated for 7 days with various concentrations of pentoxifylline. The results are expressed as percent of untreated controls.

[3] = system: peripheral blood mononuclear cells (PBM); assay type: cell-based; details: human, 7 days
Method: as §2

SMILES: CC(=O)CCCCn1c(=O)c2c(ncn2C)n(C)c1=O [Pentoxifylline, pentoxifylline]
- HIV-1 replication as measured by reverse transcriptase activity (HIV-1 [1]; Jurkat cells acutely infected with HIV): decreased
- Reverse Transcriptase (% control) (HIV-1 [1]; pentoxifylline 50 micromolar): 84.6 % control
- Reverse Transcriptase (% control) (HIV-1 [1]; pentoxifylline 100 micromolar): 72.9 % control
- Reverse Transcriptase (% control) (HIV-1 [1]; pentoxifylline 500 micromolar): 69.5 % control
- Reverse Transcriptase (% control) (HIV-1 [1]; pentoxifylline 1000 micromolar): 55.0 % control
- CAT activity (HIV-1 LTR; Phorbol ester-non-stimulated, pentoxifylline 50 micromolar): 4.91
- CAT activity (HIV-1 LTR; Phorbol ester-non-stimulated, pentoxifylline 100 micromolar): 3.75
- CAT activity (HIV-1 LTR; Phorbol ester-non-stimulated, pentoxifylline 500 micromolar): 2.95
- CAT activity (HIV-1 LTR; Phorbol ester-non-stimulated, pentoxifylline 1000 micromolar): 2.81
- CAT activity (HIV-1 LTR; Phorbol ester-stimulated (10 ng/ml PMA), pentoxifylline 50 micromolar): 50.4
- CAT activity (HIV-1 LTR; Phorbol ester-stimulated (10 ng/ml PMA), pentoxifylline 100 micromolar): 23.9
- CAT activity (HIV-1 LTR; Phorbol ester-stimulated (10 ng/ml PMA), pentoxifylline 500 micromolar): 20.3
- CAT activity (HIV-1 LTR; Phorbol ester-stimulated (10 ng/ml PMA), pentoxifylline 1000 micromolar): 19.5
- chloramphenicol transacetylase activity (CAT) (HIV-1 LTR; U38 cells, whether or not first pretreated with phorbol ester): decreased
- Cell viability (Jurkat cells): > 95%
- Reverse Transcriptase (% control) (HIV-1 [2]; pentoxifylline 25 micromolar): 75.5 % control
- Reverse Transcriptase (% control) (HIV-1 [2]; pentoxifylline 50 micromolar): 72.9 % control
- Reverse Transcriptase (% control) (HIV-1 [2]; pentoxifylline 250 micromolar): 30.0 % control
- Reverse Transcriptase (% control) (HIV-1 [2]; pentoxifylline 500 micromolar): 22.7 % control
- Reverse Transcriptase (% control) (HIV-1 [2]; pentoxifylline 1000 micromolar): 18.6 % control
- HIV-1 replication as measured by reverse transcriptase activity (HIV-1 [2]; peripheral blood mononuclear cells acutely infected with HIV-1): decreased
- Viability (% control) ([3]; 50 micromolar): 93.5 % control
- Viability (% control) ([3]; 500 micromolar): 84.8 % control
- Viability (% control) ([3]; 1000 micromolar): 50.0 % control
